Here are results for 1 molecule from ChEMBL document CHEMBL1151620, “Rollinone, a new cytotoxic acetogenin from Rollinia papilionella” (1984).

Test [1] relates to P388. Kind of test: Cytotoxicity against mouse P388 cells. It is filed as functional.
The test system of test [2] is P388. Kind of test: In vivo antitumor activity against mouse P388 lymphocytic leukemia in mouse at 1.4 mg/kg. It is filed as functional.

Usually T/C stands for the result in the treated group divided by that in the control group, in per cent. For the molecule `CCCCCCCCCCC(O)C1CCC(C2CCC(C(O)C(=O)CCCCCCCCCCCC3CC(C)OC3=O)O2)O1` (configuration not stated) [ROLLINONE], the ED50 with P388 [1] is recorded as less than 1 ×10⁻⁵ ug/ml. Moreover, in the test on P388 [2], the T/C amounted to 147%.
